This is an account of results in ChEMBL document CHEMBL3286307, “Imidazo[2,1]thiazol-3-one Derivatives Useful as Diagnostic Agents for Alzheimer's Disease” (ACS Med Chem Lett, 2014).

Test [1] concerns the target Amyloid-beta precursor protein (Homo sapiens, UniProt P05067). As to the kind of experiment: Inhibition of amyloid beta (unknown origin) aggregation by Thiazin-red R displacement fluorescence assay.
Test [2] addresses Microtubule-associated protein tau (Homo sapiens, UniProt P10636). The test is described as follows: Inhibition of recombinant human microtubule associated protein tau aggregation by Thiazin-red R displacement fluorescence assay.

Sequence of Amyloid-beta precursor protein (P05067 whole entry): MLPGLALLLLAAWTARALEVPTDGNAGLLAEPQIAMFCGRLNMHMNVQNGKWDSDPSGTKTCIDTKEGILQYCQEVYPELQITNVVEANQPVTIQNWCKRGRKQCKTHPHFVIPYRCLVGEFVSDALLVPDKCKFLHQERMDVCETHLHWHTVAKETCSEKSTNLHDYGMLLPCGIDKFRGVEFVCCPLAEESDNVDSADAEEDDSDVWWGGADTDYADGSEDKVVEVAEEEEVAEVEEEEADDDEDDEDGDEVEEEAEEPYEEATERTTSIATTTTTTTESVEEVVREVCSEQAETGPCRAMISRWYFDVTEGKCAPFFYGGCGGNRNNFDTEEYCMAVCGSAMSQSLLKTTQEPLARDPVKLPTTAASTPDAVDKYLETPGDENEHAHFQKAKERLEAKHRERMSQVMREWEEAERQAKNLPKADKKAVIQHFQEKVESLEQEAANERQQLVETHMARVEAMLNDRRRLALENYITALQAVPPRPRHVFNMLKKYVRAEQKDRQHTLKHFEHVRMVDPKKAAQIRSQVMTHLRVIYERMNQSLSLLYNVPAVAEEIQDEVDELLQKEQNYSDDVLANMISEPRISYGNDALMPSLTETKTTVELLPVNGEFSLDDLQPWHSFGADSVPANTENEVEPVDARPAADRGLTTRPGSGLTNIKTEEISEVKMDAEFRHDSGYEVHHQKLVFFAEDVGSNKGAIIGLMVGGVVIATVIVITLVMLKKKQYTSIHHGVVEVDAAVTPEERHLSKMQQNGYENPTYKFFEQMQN
Sequence of Microtubule-associated protein tau (P10636 whole entry): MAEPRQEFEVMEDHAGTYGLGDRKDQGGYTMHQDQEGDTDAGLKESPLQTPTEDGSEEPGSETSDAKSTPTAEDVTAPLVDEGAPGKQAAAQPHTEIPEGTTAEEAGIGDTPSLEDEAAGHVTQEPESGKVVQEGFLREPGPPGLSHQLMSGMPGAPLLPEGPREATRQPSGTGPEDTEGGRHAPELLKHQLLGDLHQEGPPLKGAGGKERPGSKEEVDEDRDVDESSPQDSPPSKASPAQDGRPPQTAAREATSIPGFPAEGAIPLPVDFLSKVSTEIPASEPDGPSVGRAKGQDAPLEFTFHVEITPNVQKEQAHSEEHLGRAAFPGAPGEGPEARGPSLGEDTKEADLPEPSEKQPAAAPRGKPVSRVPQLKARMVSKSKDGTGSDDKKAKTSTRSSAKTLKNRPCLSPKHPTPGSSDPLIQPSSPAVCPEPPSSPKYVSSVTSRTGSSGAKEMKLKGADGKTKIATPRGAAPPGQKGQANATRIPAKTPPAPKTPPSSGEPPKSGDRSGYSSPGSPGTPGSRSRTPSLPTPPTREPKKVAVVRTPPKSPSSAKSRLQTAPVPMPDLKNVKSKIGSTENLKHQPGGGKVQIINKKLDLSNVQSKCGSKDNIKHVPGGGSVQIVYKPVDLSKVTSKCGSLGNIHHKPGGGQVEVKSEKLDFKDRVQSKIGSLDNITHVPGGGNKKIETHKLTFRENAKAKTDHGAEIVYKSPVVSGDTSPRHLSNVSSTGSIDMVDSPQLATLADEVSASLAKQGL

The compound `COc1cc(/C=c2\sc3nc(-c4cccc(OC(F)(F)F)c4)cn3c2=O)cc(F)c1O` yielded an IC50 in test [1] of more than 10 µM.
Turning to `COc1cc(/C=c2\sc3nc(-c4ccncc4C)cn3c2=O)ccc1O`, the results for the IC50 in test [2] and in test [1] were 0.079 µM and more than 10 µM, respectively.
For `COc1cc(/C=c2\sc3nc(-c4ccncc4C)cn3c2=O)cc(OC)c1O`, the IC50 in test [2] is 0.008 µM; in test [1], 0.032 µM.
